We go through 15 compounds from article PMC11174489, “In Vitro Activation of Human Adrenergic Receptors and Trace Amine-Associated Receptor 1 by Phenethylamine Analogues Present in Food Supplements” (Nutrients, 2024).

Read-outs that look alike come from different tables or passages of the source.

The target of data set [1] is T1, human adrenergic receptor (ADR) β2 (Homo sapiens, UniProt P07550).
T1 construct: host or cells: rat chem-1 cells
Briefly: ADRβ2 activation, Ca2+ influx (Fluo-8) in overexpressing chem-1 cells. The class given is cell-based. The following applies: for ADRβ2 Emax: % of maximal signal obtained by adrenaline, average (95% CI); for EC50: Ca2+ response, chem-1 cells, average (95% confidence interval), 7–9 experiments.

In data set [2] the target is T2, human adrenergic receptor (ADR) α1B (Homo sapiens, UniProt P35368).
T2 construct: host or cells: rat chem-1 cells
T2 sequence (P35368 1-520): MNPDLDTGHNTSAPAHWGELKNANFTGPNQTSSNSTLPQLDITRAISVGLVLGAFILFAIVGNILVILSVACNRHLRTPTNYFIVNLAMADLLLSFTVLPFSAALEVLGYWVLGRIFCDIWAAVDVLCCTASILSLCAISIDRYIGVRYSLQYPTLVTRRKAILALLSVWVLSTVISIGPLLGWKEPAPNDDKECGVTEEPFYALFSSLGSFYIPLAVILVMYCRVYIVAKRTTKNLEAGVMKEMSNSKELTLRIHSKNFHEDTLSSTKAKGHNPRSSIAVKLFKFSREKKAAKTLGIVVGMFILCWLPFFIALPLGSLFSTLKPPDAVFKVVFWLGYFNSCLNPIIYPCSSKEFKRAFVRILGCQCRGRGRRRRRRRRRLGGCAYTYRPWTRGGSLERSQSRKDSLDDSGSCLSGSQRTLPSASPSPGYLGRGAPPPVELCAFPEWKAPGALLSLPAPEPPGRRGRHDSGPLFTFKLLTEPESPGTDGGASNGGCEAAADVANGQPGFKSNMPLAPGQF
In words: ADRα1B activation, Ca2+ influx (Fluo-8) in overexpressing chem-1 cells. The class given is cell-based. The note with it: for ADRα1B Emax: % of maximal signal obtained by adrenaline, average (95% CI); for Emax: Chem-1, read-out: ADRα1B Emax. From the text:
(§1) Cells overexpressing human ADRs α1A, α1B, α1D, α2A, α2B, β1 and β2 (Eurofins Discovery Services, St. Charles, MO, USA, product numbers: HTS087RTA, HTS158RTA, HTS216RTA, HTS096RTA, HTS157LRTA, HTS104RTA and HTS073RTA, respectively) were used to study the potency (EC50) and efficacy (Emax) of the selected compounds for these receptors by quantifying Ca^2+ influx upon receptor activation. ADRα1A, α1B, α1D, α2A, β1 and β2 were overexpressed in rat chem-1 cells. ADRα2B was overexpressed in HEK293 cells. The cells were seeded (10,000–50,000 cells/well) in a black 96-well plate (VWR International, Leuven, Belgium) and incubated at 37 °C and 5% CO2 for 24 h. After 24 h, the cells were washed with Hank’s balanced salt solution (HBSS) (Gibco, Paisley, UK) containing 0.35 g/L sodium bicarbonate and incubated with 5 µg/mL Fluo-8 AM in HBSS (pH 7.4) supplemented with 2.5 mM probenecid for 1 h. […] Peak tops of the obtained fluorescence response–time curves were corrected for baseline fluorescence and used to construct concentration–response relationships.
(§2) Concentration–response relationships for TAAR1 activation are presented as percentages of the maximal intracellular cAMP level induced by full the TAAR1 agonist phenethylamine and corrected for baseline cAMP accumulation. […] Experiments were run in duplicate in 7–9 independent experiments for ADR and were run in 3–5 independent experiments for TAAR1.

Data set [3] concerns the target T3, human adrenergic receptor (ADR) β1 (Homo sapiens, UniProt P08588).
T3 construct: host or cells: rat chem-1 cells
Briefly: ADRβ1 activation, Ca2+ influx (Fluo-8) in overexpressing chem-1 cells. The class given is cell-based. The following applies: for ADRβ1 Emax: % of maximal signal obtained by adrenaline, average (95% CI); for Emax: Chem-1, read-out: ADRβ1 Emax; for potency at ADRβ1, times less potent than adrenaline: relative to the endogenous agonist adrenaline.
Text: as §1, §2

Details of data set [4]: method as in earlier work. The following applies: humans; ref 47 (Feng et al. 2012); cited from earlier work.
Details of data set [5]: method as in PMID 33227193, PMID 31984737. The following applies: humans, n = 3, cited from earlier work.

T1 sequence (P07550 whole entry): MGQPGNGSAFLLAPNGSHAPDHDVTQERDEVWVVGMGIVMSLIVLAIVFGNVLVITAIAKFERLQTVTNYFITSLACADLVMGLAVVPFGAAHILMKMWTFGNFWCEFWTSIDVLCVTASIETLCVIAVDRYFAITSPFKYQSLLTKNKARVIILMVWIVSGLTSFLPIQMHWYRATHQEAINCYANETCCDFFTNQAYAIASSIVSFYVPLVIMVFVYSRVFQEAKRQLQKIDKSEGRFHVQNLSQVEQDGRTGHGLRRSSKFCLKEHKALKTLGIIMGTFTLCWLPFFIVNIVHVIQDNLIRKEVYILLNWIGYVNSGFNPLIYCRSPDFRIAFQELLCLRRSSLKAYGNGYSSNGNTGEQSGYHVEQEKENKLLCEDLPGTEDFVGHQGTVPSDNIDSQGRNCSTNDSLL
T3 sequence (P08588 whole entry): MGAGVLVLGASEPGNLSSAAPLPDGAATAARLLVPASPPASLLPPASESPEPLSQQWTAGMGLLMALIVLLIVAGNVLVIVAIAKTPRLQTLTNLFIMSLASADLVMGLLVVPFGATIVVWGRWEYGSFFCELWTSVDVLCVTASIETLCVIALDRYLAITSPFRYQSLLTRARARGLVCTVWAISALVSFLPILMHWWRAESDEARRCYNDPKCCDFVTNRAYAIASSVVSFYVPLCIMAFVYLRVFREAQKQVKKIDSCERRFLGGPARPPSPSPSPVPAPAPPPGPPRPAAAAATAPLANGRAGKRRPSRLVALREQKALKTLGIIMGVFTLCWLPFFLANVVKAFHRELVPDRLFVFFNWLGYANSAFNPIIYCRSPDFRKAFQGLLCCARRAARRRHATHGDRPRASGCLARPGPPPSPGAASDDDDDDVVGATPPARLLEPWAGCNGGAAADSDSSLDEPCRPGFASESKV

In general, EC50 refers to the concentration at which the effect is half-maximal. Read a high EC50 as weaker potency. With `CC(C)NCC(O)c1ccc(O)cc1` (centres unmarked) [Isopropyloctopamine, isopropyloctopamine], in data set [1], the “ADRβ2 Emax” value is “-” and the EC50 is over 300 µM. In data set [2], the EC50 is over 300 µM and the “ADRα1B Emax” value is reported as “-”.

For orientation: Emax means the size of the effect at its maximum, as opposed to the concentration needed. Regarding `CN(C)CCc1ccccc1` [Dimethylphenethylamine, N,N-dimethylphenethylamine], in data set [1], the “ADRβ2 Emax” value is listed as “-” and the EC50 was over 300 µM. In data set [3], the EC50 is over 300 µM and the “ADRβ1 Emax” value is listed as “-”. In data set [2], the midpoint of the response, the EC50, lay at 6.1 µM and the Emax was 19%.

Regarding `CNCC(O)c1ccccc1` (centres unmarked) [Halostachine, halostachine], in data set [1], the “ADRβ2 Emax” value is reported as “-” and the EC50 was over 300 µM. For the same compound, in data set [3], the EC50 is over 300 µM and the “ADRβ1 Emax” value is “-”. In addition, in data set [2], the EC50 is 1.1 µM and the Emax was determined as 77%.

Take `CNC(C)C(O)c1ccc(O)cc1` (centres unmarked) [Methylsynephrine]: in data set [1], the “ADRβ2 Emax” value is reported as “-” and the EC50 is over 300 µM. Also, in data set [3], the EC50 is 25 µM; the Emax was 75%; the “potency at ADRβ1, times less potent than adrenaline” value is given as “approximately 2500 times”. In addition, in data set [2], the EC50 was over 300 µM and the “ADRα1B Emax” value is “-”.

As for `CN(C)CCO` [Dimethylaminoethanol, dimethylaminoethanol], in data set [1], the “ADRβ2 Emax” value is on record as “-” and the half-maximal effective concentration (EC50) is over 300 µM. Also, in data set [3], the EC50 was over 300 µM and the “ADRβ1 Emax” value was “-”. In data set [2], the EC50 was over 300 µM and the “ADRα1B Emax” value was “-”.

As to `NCCc1ccc(O)cc1` [Tyramine, tyramine], the “ADRβ2 Emax” value in data set [1] was “-”. In data set [2], the EC50 was over 300 µM and the “ADRα1B Emax” value is recorded as “-”.

As to `NCCc1ccccc1` [Phenethylamine, phenethylamine], in data set [1], the “ADRβ2 Emax” value was “-” and the EC50 was over 300 µM. Further, in data set [3], the EC50 was over 300 µM and the “ADRβ1 Emax” value is on record as “-”. Also, in data set [2], the EC50 was over 300 µM and the “ADRα1B Emax” value is listed as “-”.

Consider `CNCC(O)c1ccc(O)cc1` (centres unmarked) [p-Synephrine, p-synephrine], for which, in data set [1], the “ADRβ2 Emax” value is reported as “-” and the EC50 is over 300 µM. Also, the Emax in data set [2] was determined as 91%.

Take `CC(C)CCCC(C)N` (centres unmarked): in data set [1], the “ADRβ2 Emax” value is reported as “-” and the EC50 is over 300 µM. In addition, in data set [3], the EC50 was over 300 µM and the “ADRβ1 Emax” value is recorded as “-”. Besides, in data set [2], the EC50 was over 300 µM and the “ADRα1B Emax” value is listed as “-”.

Consider `CCC(C)CC(C)N` (centres unmarked) [1,3-Dimethylamylamine, 1,3-dimethylamylamine], for which, in data set [1], the “ADRβ2 Emax” value is given as “-” and the EC50 is over 300 µM. Besides, in data set [3], the EC50 is over 300 µM and the “ADRβ1 Emax” value is on record as “-”. For the same compound, in data set [2], the EC50 was over 300 µM and the “ADRα1B Emax” value was “-”.

For the compound `Oc1ccc(CC2NCCc3cc(O)c(O)cc32)cc1` (centres unmarked) [Higenamine, higenamine], the maximal plasma concentration in data set [4] is listed as 8.4 nM. Further, in data set [1], the EC50 amounted to 0.47 µM. Moreover, the Emax in data set [1] (Chem-1) was found to be 31%. Besides, the “potency at ADRβ2, times less potent than adrenaline” value in data set [1] (relative to the full agonist adrenaline) is “seven”. Besides, in data set [3], the EC50 was 0.034 µM; the Emax came to 105%; the “potency at ADRβ1, times less potent than adrenaline” value is about 3 times. In data set [2], the EC50 is over 300 µM and the “ADRα1B Emax” value is reported as “-”.

As to `CN(C)CCc1ccc(O)cc1` [Hordenine, hordenine], in data set [5] (5.5 mg oral dose), the Human plasma level is 15 nM. Further, the Human plasma level in data set [5] (100 mg oral dose) is listed as 2.7 nM. In data set [1], the “ADRβ2 Emax” value is “-” and the EC50 is over 300 µM. In data set [3], the EC50 was over 300 µM and the “ADRβ1 Emax” value is recorded as “-”. In addition, in data set [2], the EC50 is 5.7 µM and the Emax stood at 37%.

For `CC(C)CC(C)N` (centres unmarked), in data set [1], the “ADRβ2 Emax” value is given as “-” and the EC50 was over 300 µM. In data set [3], the EC50 is over 300 µM and the “ADRβ1 Emax” value was “-”. Besides, in data set [2], the EC50 is over 300 µM and the “ADRα1B Emax” value was “-”.

As to `NCC(O)c1ccc(O)cc1` (centres unmarked) [p-Octopamine, p-octopamine], in data set [1], the “ADRβ2 Emax” value is “-” and the EC50 is over 300 µM. In data set [2], a half-maximal effect (EC50) was put at 3.9 µM and the Emax is 94%.

`CC(CN)c1ccccc1` (stereo not drawn) [β-Methylphenethyl-amine, beta-methylphenethylamine]: in data set [1], the “ADRβ2 Emax” value is reported as “-” and the EC50 was over 300 µM. Also, in data set [3], the EC50 was over 300 µM and the “ADRβ1 Emax” value is “-”. Besides, in data set [2], the concentration giving a half-maximal response (EC50) was over 300 µM and the “ADRα1B Emax” value is recorded as “-”.
